The values below come from patent EP0245669B1, “Pharmaceutical preparation for preventing damage to living cells by free radicals, or for increasing the efficacy of organic sulphur compounds, and process for increasing the life span of isolated organs” (Medopharm Arzneimittelwerk Dr. Zillich GmbH & Co., priority 1986, dated 1987).

The subject of one series is Mäuse. Put plainly: Toxicity of the zinc salts used as radiation protection agents (LD50). The class given is in vivo. As to the method:
In diesem Beispiel wurde die Toxizität der als Strahlenschutzmittel eingesetzten Zinksalze getestet.
Der LD₅₀-Wert betrug für das Zinkaspartat 55 mg/kg Körpergewicht, für das Zinkchlorid 24 mg/kg Körpergewicht und für das Zinksulfat 45 mg/kg Körpergewicht.

In another series the test system is weiblichen C3H Mäusen. The series is described as follows: Radiation protection: survival of mice after gamma irradiation (cobalt-60) following i.p. pretreatment. It counts as in vivo, Mäuse. The settings on record: for Ueberlebensrate nach Bestrahlung mit 9 Gy % / Ueberlebensrate nach Bestrahlung mit 9 Gy Anzahl: 10 min before 9 Gy; for Ueberlebensrate nach Bestrahlung mit 9 Gy Anzahl / Ueberlebensrate nach Bestrahlung mit 10 Gy Anzahl / Ueberlebensrate nach Bestrahlung mit 11 Gy Anzahl: surviving/irradiated mice; for Ueberlebensrate nach Bestrahlung mit 11 Gy % / Ueberlebensrate nach Bestrahlung mit 11 Gy Anzahl: 30 min before 11 Gy. The text has this:
In den nachfolgenden Beispielen wurde die synergistische Wirkung der durch die erfindungsgemässe Verwendung hergestellten pharmazeutischen Präparate mit organische Schwefelverbindungen enthaltenden Präparaten anhand des Strahlenschutzes getestet und es wurde auch die Strahlenschutzwirkung der Zinkionen enthaltenden Präparate mit bisher bekannten Strahlenschutzpräparaten an Mäusen getestet. Die Versuche wurden mit weiblichen C3H Mäusen (GL. Bomholtgard, Ry, Dänemark) durchgeführt, die 20 bis 22 g wogen. Die Mäuse wurden unter Bedingungen gehalten, wo sie so viel Standard-Nagetierfutter (Nafag Pellts) fressen und so viel Leitungswasser trinken können, wie sie wollten. Die Bestrahlung erfolgte mit Gammastrahlen aus einer Kobalt-60 Quelle. Es wurden unterschiedliche Bestrahlungen vorgenommen, und zwar mit 9 Gy, 10 Gy, 11 Gy, 12 Gy, 13 Gy und 14 Gy.
10 Minuten vor der Bestrahlung, 30 Minuten vor der Bestrahlung oder 120 Minuten vor der Bestrahlung wurde ein durch die erfindungsgemässe Verwendung hergestelltes synergistisch wirkendes pharmazeutisches Präparat, bzw. ein entsprechendes, Zinkionen enthaltendes Strahlenschutzpräparat oder ein aus dem Stand der Technik bekanntes Strahlenschutzpräparat zu Vergleichszwecken durch intraperitoneale Injektion verabreicht.
Bei der Gruppe der Mäuse zu Vergleichszwecken, die ohne Verabreichung eines Strahlenschutzpräparates bestrahlt wurden, erfolgte 10 Minuten vor der Bestrahlung die Verabreichung von destilliertem Wasser. Bei diesen unbehandelten Mäusen überlebten nur 50% der Tiere eine Bestrahlung von 8 Gy, d.h. der LD₅₀-Wert betrug 8 Gy.
Nach den Arbeitsweisen der vorangegangenen Beispiele 1 bis 4, wurden weitere Tests mit den genannten weiblichen Mäusen durchgeführt, und zwar unter Verwendung der angeführten Zinksalze. Die bei diesen Tests erzielten Ergebnisse sind in der nachfolgenden Tabelle I zusammengestellt. Für jede der angewandten Bestrahlungsstärken ist in der Rubrik "Anzahl" diejenige Anzahl der Mäuse angeführt, welche die Bestrahlung überlebten, geteilt durch die Gesamtzahl der Mäuse, welche bestrahlt wurden. Ein entsprechender Wert von 1/10 bedeutet also, dass von 10 bestrahlten Mäusen eine überlebt hatte. In der Spalte mit der Bezeichnung "Prozent", ist die Prozent-Ueberlebensrate angeführt. Bei einer überlebenden Maus pro 10 getesteten Mäusen beträgt diese Ueberlebensrate 10 %.
Zu Vergleichszwecken sind in der nachfolgenden Tabelle III die Ueberlebensraten von Mäusen zusammengestellt, die nach dem in Beispiel 5 beschriebenen Verfahren einer Vorbehandlung mit einem bekannten schwefelhaltigen Strahlenschutzmittel unterworfen worden waren. Orientierende Vorversuche hatten gezeigt, dass diese Strahlenschutzmittel bereits ihre Wirkung verloren hatten, wenn sie zwei Stunden vor der Einwirkung der Bestrahlung verabreicht worden waren. Die Bestrahlung wurde, wie aus der Tabelle ersichtlich ist, zwei Minuten nach der Verabreichung, in den meisten Fällen 10 Minuten nach der Verabreichung, aber auch 30 Minuten, bzw. 120 Minuten nach der Verabreichung durchgeführt. Die Werte deuten darauf hin, dass 30 Minuten nach der Verabreichung die Schutzwirkung schon wieder deutlich nachgelassen hat. Für jede Bestrahlungsstärke ist wiederum die Anzahl der Tiere angeführt, die nach 30 Tagen überlebt haben, geteilt durch die Gesamtzahl der Tiere, die behandelt und bestrahlt worden waren.
Anhand dieses Beispiels soll die synergistische Wirkung von Zinkionen und Schwefelverbindungen bezüglich eines Strahlenschutzes erläutert werden. Es wurde wieder in der gleichen Weise gearbeitet, wie in den vorangegangenen Beispielen 1 bis 3, bzw. 5, und es wurde auch die gleiche Art an weiblichen Mäusen getestet. Die Verabreichung der Zinkionen enthaltenden Lösung und der Lösung der Schwefelverbindung erfolgte entweder nacheinander oder gleichzeitig durch intraperitoneale Injektion.
In allen Fällen wurde die Ueberlebensrate 30 Tage nach der Einwirkung der Bestrahlung bestimmt.

The mark [1] stands for this setting: Table II, Zinksulfat: 15 mg/kg i.p.
[2] abbreviates: Table II, Zinksulfat: 15 mg/kg i.p., 10 min before 10 Gy.
Setting [3] is: Table II, Zinksulfat: 30 mg/kg i.p.
The mark [4] stands for this setting: Table II, Zinksulfat: 30 mg/kg i.p., 10 min before 10 Gy.
Setting [5] is: Table II, Zinksulfat: 22,5 mg/kg i.p.
[6] abbreviates: Table II, Zinksulfat: 22,5 mg/kg i.p., 10 min before 10 Gy.
Where [7] appears, read: Table II: 10 mg/kg i.p., 30 min before 10 Gy.
Where [8] appears, read: Table II: 15 mg/kg i.p., 30 min before 10 Gy.

For Zinksulfat, the LD₅₀-Wert in the series with Mäuse came out at 45 mg/kg Körpergewicht. Besides, in the series on weiblichen C3H Mäusen (setting [1]), the “Ueberlebensrate nach Bestrahlung mit 9 Gy %” value amounted to 0%, the “Ueberlebensrate nach Bestrahlung mit 9 Gy Anzahl” value is 1/10, the “Ueberlebensrate nach Bestrahlung mit 11 Gy %” value is given as 0% and the “Ueberlebensrate nach Bestrahlung mit 11 Gy Anzahl” value is on record as 0/20. In the series on weiblichen C3H Mäusen (setting [2]), the “Ueberlebensrate nach Bestrahlung mit 10 Gy %” value is reported as 22% and the “Ueberlebensrate nach Bestrahlung mit 10 Gy Anzahl” value is listed as 2/9. Besides, in the series on weiblichen C3H Mäusen (setting [3]), the “Ueberlebensrate nach Bestrahlung mit 9 Gy Anzahl” value was 0/10, the “Ueberlebensrate nach Bestrahlung mit 11 Gy %” value was 5% and the “Ueberlebensrate nach Bestrahlung mit 11 Gy Anzahl” value is 1/20. Further, in the series on weiblichen C3H Mäusen (setting [4]), the “Ueberlebensrate nach Bestrahlung mit 10 Gy %” value is 33% and the “Ueberlebensrate nach Bestrahlung mit 10 Gy Anzahl” value was 3/9. Besides, in the series with weiblichen C3H Mäusen (setting [5]), the “Ueberlebensrate nach Bestrahlung mit 9 Gy %” value is listed as 80%, the “Ueberlebensrate nach Bestrahlung mit 9 Gy Anzahl” value is recorded as 8/10, the “Ueberlebensrate nach Bestrahlung mit 11 Gy %” value was found to be 0% and the “Ueberlebensrate nach Bestrahlung mit 11 Gy Anzahl” value is reported as 0/20. Besides, in the series with weiblichen C3H Mäusen (setting [6]), the “Ueberlebensrate nach Bestrahlung mit 10 Gy %” value is 33% and the “Ueberlebensrate nach Bestrahlung mit 10 Gy Anzahl” value is listed as 3/9.

For `[Cl-].[Cl-].[Zn+2]` [Zinkchlorid], the LD₅₀-Wert in the series on Mäuse came out at 24 mg/kg Körpergewicht. The “Ueberlebensrate nach Bestrahlung mit 9 Gy %” value with weiblichen C3H Mäusen (Table II: 10 mg/kg i.p.) turned out to be 20%; in the series with weiblichen C3H Mäusen (Table II: 15 mg/kg i.p.), 30%; in the series with weiblichen C3H Mäusen (Table II: 20 mg/kg i.p.), 10%. In addition, the “Ueberlebensrate nach Bestrahlung mit 9 Gy Anzahl” value was 2/10 with weiblichen C3H Mäusen (Table II: 10 mg/kg i.p.), 3/30 in the series on weiblichen C3H Mäusen (Table II: 15 mg/kg i.p.) and 0/10 in the series on weiblichen C3H Mäusen (Table II: 20 mg/kg i.p.). Also, the results for the “Ueberlebensrate nach Bestrahlung mit 10 Gy %” value with weiblichen C3H Mäusen (setting [7]) and with weiblichen C3H Mäusen (setting [8]) were 15% and 20%, respectively. In addition, the “Ueberlebensrate nach Bestrahlung mit 10 Gy Anzahl” value is given as 3/20 in the series with weiblichen C3H Mäusen (setting [7]) and 4/20 in the series with weiblichen C3H Mäusen (setting [8]).
